According to patent publication US4400517A, “Phosphoric esters derived from 1,2,4-triazole having an insecticidal, nematocidal and acaricidal action, and their preparation” (priority 1976, dated 1983):
Like-named read-outs stand apart in the source and are kept apart here.

Key:
[1] = test system: Leptinotarsa decemlineata; assay: Biological activity on Leptinotarsa decemlineata (Coleoptera); format: in vivo; conditions: 48 h
Description: (3) Biological activity on Leptinotarsa decemlineata (Coleoptera)
Small potato plants grown in pots were infested with 4-day old larvae, and were then sprinkled with an aqueous dispersion of the products under examination (see Tables 4 and 5).
The mortality percentage (untreated small plants=0) was determined after 48 hours from treatment.

[2] = test system: Pieris brassicae; assay: Biological activity on Pieris brassicae (Lepidoptera); format: in vivo; conditions: 48 h
Description: (2) Biological activity on Pieris brassicae (Lepidotera)
Cut-off cauliflower leaves were sprinkled with an aqueous dispersion of the products under examination (see TABLE 5).
After drying, the leaves were infested with 5-day old larvae. The percentage of mortality of the larvae (untreated leaves=0) was determined after 48 hours from treatment.

[3] = test system: Blatta orientalis; assay: Biological activity on Blatta orientalis (Ortoptera); format: in vivo; conditions: Blatta orientalis, 48 h, read-out: Activity (mortality class), Blatta O.
Description: (10) Biological activity on Blatta orientalis (Ortoptera)
The bottom and walls of glass crystallizers were treated uniformly with an acetonic solution of the products under examination (see Tables 4 and 5). After evaporation of the solvent, into each crystallizer were introduced ten 80-100 days old neanides. The crystallizers were then closed with a metal net cover. After 24 hours from the start of the treatment, the insects were transferred to similar untreated crystallizers, and there were appropriately nourished in conventional manner.
The percentage of mortality (untreated insects=0) was determined after 48 hours from the start of the treatment.

[4] = test system: Tetranychus urticae; assay: Biological activity on adults of Tetranychus urticae (Acari); format: in vivo; conditions: 24 h
Description: (5) Biological activity on adults of Tetranychus urticae (Acari)
Discs of bean leaves were infested with adult acari and then sprinkled with an aqueous dispersion of the products under examination (see Tables 4 and 5).
The mortality percentage was determined after 24 hours from treatment (untreated leaf discs, mortality=0).

[5] = test system: Macrosiphum euphorbiae; assay: Biological activity on Macrosiphum euphorbiae (Aphides); format: in vivo; conditions: potato plants, 24 h
Description: (1) Biological activity on Macrosiphum euphorbiae (Aphides)
Potato plants grown in pots were infested with adult females of aphides and, after several hours, were sprinked with an aqueous dispersion of the products under examination (see TABLE 5).
The percentage of mortality was assessed after 24 hours after the treatment (untreated plants=0).

[6] = test system: Culex pipiens; assay: Biological activity on Culex pipiens larvae (Diptera); format: in vivo; conditions: 24 h
Description: (4) Biological activity on Culex pipiens (Diptera)
Into glasses containing an aqueous dispersion of the products under examination (see Tables 4 and 5) there were introduced mosquito larvae of third and fourth age.
The mortality percentage of the larvae (glasses containing pure water=0) was determined after 24 hours from treatment.

[7] = test system: Spodoptera littoralis; assay: Biological activity on Spodoptera littoralis (Lepidoptera); format: in vivo; conditions: 48 h
Description: (7) Biological activity on Spodoptera littoralis (Lepidoptera)
Cut tobacco leaves were sprinkled with an aqueous dispersion of the products under examination (see Tables 4 and 5).
After drying, the leaves were infested with 5-day old larvae.
The percentage of mortality of the larvae was determined after 48 hours from treatment (untreated leaves, mortality=0).

[8] = test system: Tetranychus urticae; assay: Biological activity on Tetranychus urticae eggs (Acari); format: in vivo; conditions: bean leaf discs, 144 h
Description: (6) Biological activity on Tetranychus urticae (Acari)
Small discs of bean leaves were infested with Acari eggs and were then sprinkled with an aqueous dispersion of the products under examination (see Table 5).
The mortality percentage was determined after 6 days from treatment (untreated leaf discs, mortality=0).

[9] = test system: Locusta M.; assay: Activity on Locusta M.; conditions: in vivo
[10] = Toxicity on albino rats by oral administration; conditions: rat, in vivo
[11] = read-out: Activity (mortality class), Leptinotarsa D.
[12] = read-out: Activity (mortality class), Pieris B.
[13] = read-out: Activity (mortality class), Tetranychus U. (adults)
[14] = read-out: Activity (mortality class), Culex P. (larvae)
[15] = read-out: Activity (mortality class), Spodoptera L.
[16] = 0.05%o, Table 5, read-out: Activity (mortality class), Leptinotarsa D.
[17] = 1%o, Table 5, read-out: Activity (mortality class), Leptinotarsa D.
[18] = 1%o, Table 5, read-out: Activity (mortality class), Pieris B.
[19] = 0.01%o, Table 5, read-out: Activity (mortality class), Tetranychus U. (adults)
[20] = 1%o, Table 5, read-out: Activity (mortality class), Tetranychus U. (adults)
[21] = 2 ppm, Table 5, read-out: Activity (mortality class), Culex P. (larvae)
[22] = 0.05%o, Table 5, read-out: Activity (mortality class), Spodoptera L.
[23] = 1%o, Table 5, read-out: Activity (mortality class), Spodoptera L.
[24] = 0.02 ppm, Table 5, read-out: Activity (mortality class), Culex P. (larvae)
[25] = 0.01%o, Table 5, read-out: Activity (mortality class), Pieris B.

Structure (SMILES) | mortality at 0.1 % [1, 11] | mortality at 0.1 % [2, 12] | mortality at 0.1 % [4, 13] | Activity (mortality class), Macrosiphum E. [5] | mortality at 2 ppm [6, 14] | mortality at 0.1 % [7, 15] | Activity (mortality class), Tetranychus U. (eggs) [8] | Activity (mortality class), Locusta M. [9] | mortality at 0.005 % [1, 16] | mortality at 0.1 % [1, 17] | mortality at 0.1 % [2, 18] | mortality at 1 g/m2 ([3]; 1 g/m^2, Table 5) | mortality at 0.001 % [4, 19] | mortality at 0.1 % [4, 20] | mortality at 2 ppm [6, 21] | also measured
CCOP(=S)(OCC)Oc1nc(C(O)CSC)nn1-c1ccccc1 (stereo not drawn) [M 9173] | 100% | 100% | 100% | ++ (100% of mortality) | 100% | 100% | – | – | – | – | – | – | – | – | – | mortality at 1 g/m2 [3]: 100%
CCOP(=S)(OCC)Oc1nc(C(C)SC)nn1-c1ccccc1 (stereo not drawn) [M 8170] | 100% | 100% | 100% | + (70-99% of mort.) | 100% | 70 to 99% | ++ (100% of mortality) | ++ (100% of mortality) | – | – | – | – | – | – | – | –
C=C(C)c1nc(OP(=S)(OCC)OCC)n(C)n1 [M 8593] | 100% | 100% | 100% | ++ (100% of mortality) | 100% | 100% | ± (10-69% of mort.) | – | – | – | – | – | – | – | – | mortality at 0.01 g/m2 [3]: 70 to 99%; mortality at 1 g/m2 [3]: 100%; mortality at 0.001 % [4, 13]: 10 to 69%; mortality at 0.02 ppm [6, 14]: 10 to 69%
CCOP(=S)(OCC)Oc1nc(C(=O)CSC)nn1-c1ccccc1 [M 8169] | 100% | 100% | 100% | ± (10-69% of mort.) | 100% | 10 to 69% | ++ (100% of mortality) | – | – | – | – | – | – | – | – | –
CCOP(=S)(OCC)Oc1nc(C(C)=C(Cl)Cl)nn1CC [M 9141] | 100% | 100% | 100% | ++ (100% of mortality) | 100% | 100% | ++ (100% of mortality) | ++ (100% of mortality) | – | – | – | – | – | – | – | mortality at 0.005 % [1, 11]: 100%; mortality at 1 g/m2 [3]: 100%; mortality at 0.001 % [4, 13]: 10 to 69%; mortality at 0.02 ppm [6, 14]: 70 to 99%
CC=C(Cl)c1nc(OP(=S)(OCC)OCC)n(C)n1 [M 8634] | – | – | – | – | – | – | – | – | 100% | 100% | 100% | 100% | 10 to 69% | 100% | 100% | LD50 [10]: 1400 mg/kg; mortality at 0.01 g/m2 ([3]; 0,01 g/m^2, Table 5): 10 to 69%; mortality at 0.005 % [7, 22]: 10 to 69%; mortality at 0.1 % [7, 23]: 100%
CCCCn1nc(C=C(Cl)Cl)nc1OP(=S)(OCCC)OCCC [M 8475] | 100% | 100% | 10 to 69% | ± (10-69% of mort.) | 100% | 10 to 69% | ++ (100% of mortality) | ± (10-69% of mort.) | – | – | – | – | – | – | – | mortality at 1 g/m2 [3]: 0 to 9%
CCOP(=S)(OCC)Oc1nc(C(Cl)=C(Cl)Cl)nn1C [M 8560] | 100% | 100% | 100% | – | – | 100% | – | – | – | – | – | – | 100% | – | 100% | LD50 [10]: 1200 mg/kg; mortality at 0.005 % [1, 11]: 100%; mortality at 0.001 % [2, 12]: 70 to 99%; mortality at 1 g/m2 [3]: 100%; mortality at 0.02 ppm [6, 24]: 10 to 69%; mortality at 0.005 % [7, 15]: 70 to 99%
CC=Cc1nc(OP(=S)(OCC)OCC)n(C(C)C)n1 [M 9137] | – | – | – | ++ (100% of mortality) | – | – | ++ (100% of mortality) | – | 100% | 100% | 100% | 100% | 10 to 69% | 100% | 100% | mortality at 0.01 g/m2 ([3]; 0,01 g/m^2, Table 5): 10 to 69%
CCCOP(=S)(OCCC)Oc1nc(C=C(Cl)Cl)nn1C [M 8448] | – | – | – | ++ (100% of mortality) | – | – | ++ (100% of mortality) | ± (10-69% of mort.) | 100% | 100% | 100% | 100% | 100% | 100% | 100% | mortality at 0.001 % [2, 25]: 10 to 69%; mortality at 0.1 % [7, 23]: 100%
CC=Cc1nc(OP(=S)(OCC)OCC)n(C)n1 [M 8119] | – | – | – | – | – | – | – | ++ (100% of mortality) | – | – | – | – | – | – | – | mortality at 0.005 % [1, 11]: 10 to 69%; mortality at 0.001 % [2, 12]: 10 to 69%; mortality at 0.01 g/m2 [3]: 100%; mortality at 0.001 % [4, 13]: 70 to 99%; mortality at 0.02 ppm [6, 14]: 0 to 9%; mortality at 0.005 % [7, 15]: 10 to 69%
C=CCn1nc(C=C(Cl)Cl)nc1OP(=S)(OCC)OCC [M 8764] | 100% | – | 100% | ++ (100% of mortality) | 100% | 100% | ++ (100% of mortality) | ++ (100% of mortality) | – | – | 100% | 100% | – | – | – | mortality at 0.005 % [1, 11]: 100%; mortality at 0.001 % [4, 13]: 100%; mortality at 0.02 ppm [6, 14]: 100%; mortality at 0.005 % [7, 15]: 100%
CCOP(=S)(OCC)Oc1nc(C(C)OC)nn1-c1ccccc1 (stereo not drawn) [M 8167] | – | – | – | + (70-99% of mort.) | 100% | – | ++ (100% of mortality) | – | – | 100% | 100% | – | – | 100% | – | mortality at 0.1 % [7, 23]: 100%
CC=C(Br)c1nc(OP(=S)(OCC)OCC)n(C)n1 [M 8549] | – | – | – | – | – | – | – | – | 100% | 100% | 100% | 100% | 10 to 69% | 100% | 100% | LD50 [10]: 1000 mg/kg; mortality at 0.001 % [2, 25]: 10 to 69%; mortality at 0.1 % [7, 23]: 100%
CCOP(=S)(OCC)Oc1nc(C(C)=C(Cl)Cl)nn1C [M 8550] | – | – | – | – | – | – | – | – | 100% | 100% | 100% | 100% | 10 to 69% | 100% | 100% | LD50 [10]: 1700 mg/kg; mortality at 0.001 % [2, 25]: 100%; mortality at 0.01 g/m2 ([3]; 0,01 g/m^2, Table 5): 10 to 69%; mortality at 0.02 ppm [6, 24]: 70 to 99%; mortality at 0.1 % [7, 23]: 100%
CCOP(=S)(OCC)Oc1nc(C=C(C)C)nn1C [M 8483] | – | – | – | – | – | – | – | – | 70 to 99% | – | – | – | 100% | – | – | mortality at 0.001 % [2, 12]: 10 to 69%; mortality at 0.01 g/m2 [3]: 100%; mortality at 0.02 ppm [6, 24]: 10 to 69%; mortality at 0.005 % [7, 22]: 10 to 69%
C=Cc1nc(OP(=S)(OCC)OCC)n(C)n1 [M 8476] | – | – | – | – | – | – | – | ++ (100% of mortality) | – | – | – | – | 100% | – | – | mortality at 0.01 g/m2 ([3]; 0,01 g/m^2, Table 5): 100%; mortality at 0.02 ppm [6, 14]: 10 to 69%
CCOP(=S)(OCC)Oc1nc(Cl)n(C(C)C)n1 [Miral®, Diethyl-(1-isopropyl-5-chloro-1,2,4-triazole-3-yl) phosphoro-thionate, reference compound] | – | – | – | – | – | – | – | – | – | – | – | – | – | – | – | LD50 [10]: 60 mg/kg
